Laboratory results from ChEMBL document CHEMBL1201862, “PubChem BioAssay data set” (2004).
Activity calls are given as the source filed them.

Experiments:
[1] = target: Large T antigen (Simian virus 40, UniProt P03070); assay type: functional, Betapolyomavirus macacae;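 also: Confirmatory-stage PubChem screen for compounds that inhibit SV40 T antigen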
[2] = target: DNA dC->dU-editing enzyme APOBEC-3A (Homo sapiens, UniProt P31941); test: APOBEC3A DNA deaminase inhibitors, dose response, biochemical (AID 504722); assay type: functional
DNA dC->dU-editing enzyme APOBEC-3A, sequence (P31941 whole entry): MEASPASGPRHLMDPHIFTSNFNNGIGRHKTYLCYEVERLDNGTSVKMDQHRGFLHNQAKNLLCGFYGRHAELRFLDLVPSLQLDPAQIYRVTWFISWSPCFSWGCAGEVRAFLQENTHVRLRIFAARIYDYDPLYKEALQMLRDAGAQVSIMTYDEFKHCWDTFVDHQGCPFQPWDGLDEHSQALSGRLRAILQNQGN

[3] = target: Glucose-6-phosphate 1-dehydrogenase (Homo sapiens, UniProt P11413); test: human G6PD enzyme inhibitors, dose response, selectivity assay for P. falciparum G6PD inhibitor project, biochemical, fluorescence (AID 504792); assay type: functional
Glucose-6-phosphate 1-dehydrogenase, sequence (P11413 whole entry): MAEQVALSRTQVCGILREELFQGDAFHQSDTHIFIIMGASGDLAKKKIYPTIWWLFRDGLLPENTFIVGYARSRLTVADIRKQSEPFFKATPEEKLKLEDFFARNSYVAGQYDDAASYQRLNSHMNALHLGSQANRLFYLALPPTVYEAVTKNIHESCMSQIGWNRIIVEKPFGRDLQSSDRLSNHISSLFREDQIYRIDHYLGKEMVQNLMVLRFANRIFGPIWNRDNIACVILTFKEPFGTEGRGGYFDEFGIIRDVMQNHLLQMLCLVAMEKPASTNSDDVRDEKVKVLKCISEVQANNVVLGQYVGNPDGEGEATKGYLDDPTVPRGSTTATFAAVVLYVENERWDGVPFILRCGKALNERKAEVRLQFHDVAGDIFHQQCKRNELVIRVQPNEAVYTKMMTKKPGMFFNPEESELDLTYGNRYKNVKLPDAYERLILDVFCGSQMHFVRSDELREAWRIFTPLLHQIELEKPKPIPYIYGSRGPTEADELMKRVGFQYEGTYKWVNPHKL

[4] = target: DNA dC->dU-editing enzyme APOBEC-3G (Homo sapiens, UniProt Q9HC16); test: Dose Response confirmation of small molecule APOBEC3G DNA Deaminase Inhibitors via a fluorescence-based single-stranded DNA deaminase assay. [Related pubchem assays (depositor defined):AID493012, AID493028]; assay type: functional
DNA dC->dU-editing enzyme APOBEC-3G, sequence (Q9HC16 whole entry): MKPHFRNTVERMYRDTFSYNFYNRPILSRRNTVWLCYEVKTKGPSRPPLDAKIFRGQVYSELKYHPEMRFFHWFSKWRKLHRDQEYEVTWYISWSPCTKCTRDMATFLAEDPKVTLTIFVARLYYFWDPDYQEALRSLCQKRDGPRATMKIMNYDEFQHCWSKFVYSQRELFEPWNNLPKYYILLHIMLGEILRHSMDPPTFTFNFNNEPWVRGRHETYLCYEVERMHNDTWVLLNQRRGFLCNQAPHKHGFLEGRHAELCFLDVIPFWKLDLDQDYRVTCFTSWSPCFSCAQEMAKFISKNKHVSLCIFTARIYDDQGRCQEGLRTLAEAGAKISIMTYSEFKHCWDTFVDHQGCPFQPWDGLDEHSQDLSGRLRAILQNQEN

[5] = target: Luciferin 4-monooxygenase (Photinus pyralis, UniProt P08659); test: firefly luciferase enzyme inhibitors, dose response, biochemical, luminescence (AID 1891)
Luciferin 4-monooxygenase, sequence (P08659 whole entry): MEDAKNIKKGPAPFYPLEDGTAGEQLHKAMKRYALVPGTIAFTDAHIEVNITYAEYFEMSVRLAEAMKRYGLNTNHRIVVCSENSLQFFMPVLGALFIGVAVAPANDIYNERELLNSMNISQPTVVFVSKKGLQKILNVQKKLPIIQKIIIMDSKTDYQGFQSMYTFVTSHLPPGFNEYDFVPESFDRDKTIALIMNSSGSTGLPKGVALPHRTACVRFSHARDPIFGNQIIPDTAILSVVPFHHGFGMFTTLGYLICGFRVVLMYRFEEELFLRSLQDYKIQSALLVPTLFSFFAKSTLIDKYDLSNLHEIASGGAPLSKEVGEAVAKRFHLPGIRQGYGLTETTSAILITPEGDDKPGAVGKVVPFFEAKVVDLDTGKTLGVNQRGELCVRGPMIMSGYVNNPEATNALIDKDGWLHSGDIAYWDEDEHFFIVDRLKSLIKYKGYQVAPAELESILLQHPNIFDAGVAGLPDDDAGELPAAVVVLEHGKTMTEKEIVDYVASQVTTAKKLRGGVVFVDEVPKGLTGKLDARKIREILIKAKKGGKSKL

[6] = target: T1, Estrogen receptor (Homo sapiens, UniProt P03372);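 also: potency for inhibiting coactivator peptide recruitment to the receptor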
T1 sequence (P03372 whole entry): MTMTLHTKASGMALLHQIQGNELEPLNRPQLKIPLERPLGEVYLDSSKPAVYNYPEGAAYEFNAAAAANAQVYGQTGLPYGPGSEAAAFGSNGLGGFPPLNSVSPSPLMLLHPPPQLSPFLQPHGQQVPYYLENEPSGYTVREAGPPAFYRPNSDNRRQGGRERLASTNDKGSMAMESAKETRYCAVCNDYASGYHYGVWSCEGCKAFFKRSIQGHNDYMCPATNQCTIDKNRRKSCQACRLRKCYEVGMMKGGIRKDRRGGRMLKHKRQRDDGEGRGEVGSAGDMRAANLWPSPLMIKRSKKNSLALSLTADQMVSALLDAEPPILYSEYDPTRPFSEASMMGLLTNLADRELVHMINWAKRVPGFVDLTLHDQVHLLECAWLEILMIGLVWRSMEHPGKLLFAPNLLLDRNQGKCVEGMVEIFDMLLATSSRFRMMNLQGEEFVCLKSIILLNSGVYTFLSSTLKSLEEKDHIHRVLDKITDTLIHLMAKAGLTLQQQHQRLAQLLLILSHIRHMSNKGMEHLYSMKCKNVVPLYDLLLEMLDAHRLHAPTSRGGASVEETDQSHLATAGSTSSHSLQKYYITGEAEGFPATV

[7] = Luminescence Cell-Based Dose Confirmation HTS to Identify Inhibitors of Platelet Dense Granule Release. [Related pubchem assays: 1663 (Primary HTS), 1678 (Summary of Project)]; assay type: functional
[8] = target: G-protein coupled receptor 55 (Homo sapiens, UniProt Q9Y2T6); test: GPR55 agonists via beta-arrestin recruitment, primary screen, imaging, U2OS cells, beta-arrestin-GFP redistribution (AID 1961); assay type: functional
G-protein coupled receptor 55, sequence (Q9Y2T6 whole entry): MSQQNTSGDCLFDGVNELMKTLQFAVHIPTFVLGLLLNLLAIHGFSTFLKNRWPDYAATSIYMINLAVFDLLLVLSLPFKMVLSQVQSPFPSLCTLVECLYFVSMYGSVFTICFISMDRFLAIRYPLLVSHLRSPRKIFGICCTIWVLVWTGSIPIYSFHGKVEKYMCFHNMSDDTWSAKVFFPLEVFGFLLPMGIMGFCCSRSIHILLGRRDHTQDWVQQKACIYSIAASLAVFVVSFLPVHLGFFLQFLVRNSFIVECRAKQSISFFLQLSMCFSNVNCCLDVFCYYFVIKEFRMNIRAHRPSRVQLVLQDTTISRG

[9] = target: T2, Hexokinase (Trypanosoma brucei, UniProt Q38C41); test: Confirmation assay for inhibitors of Trypanosoma brucei hexokinase 1-Analogue-first series. [Related pubchem assays (depositor defined):AID1430, AID1632, AID2516, AID2560, AID2579, AID2600, AID449725, AID492951]; assay type: functional
T2 sequence (Q38C41 whole entry): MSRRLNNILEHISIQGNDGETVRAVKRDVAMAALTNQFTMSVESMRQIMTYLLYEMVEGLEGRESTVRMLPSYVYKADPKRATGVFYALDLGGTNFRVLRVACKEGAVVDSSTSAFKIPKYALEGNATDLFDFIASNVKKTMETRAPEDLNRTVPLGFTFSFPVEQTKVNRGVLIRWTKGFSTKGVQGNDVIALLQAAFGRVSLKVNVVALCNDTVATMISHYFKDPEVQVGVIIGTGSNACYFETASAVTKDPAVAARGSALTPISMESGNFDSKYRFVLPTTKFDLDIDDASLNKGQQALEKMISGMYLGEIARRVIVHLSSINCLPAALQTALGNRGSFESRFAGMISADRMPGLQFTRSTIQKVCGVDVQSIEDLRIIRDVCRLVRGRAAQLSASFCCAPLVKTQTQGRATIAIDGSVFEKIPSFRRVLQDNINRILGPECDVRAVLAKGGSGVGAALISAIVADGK

[10] = HeLa cell cytotoxicity, dose response, cytotoxicity control for MgcRacGAP inhibitor project (AID 624300); assay type: functional
[11] = target: T3, Rac GTPase-activating protein 1 (Homo sapiens, UniProt Q9H0H5); test: MgcRacGAP GTPase-activating activity inhibitors, confirmation, biochemical, ADP Hunter fluorescence, primary and confirmatory (AID 624330); assay type: functional
T3 sequence (Q9H0H5 whole entry): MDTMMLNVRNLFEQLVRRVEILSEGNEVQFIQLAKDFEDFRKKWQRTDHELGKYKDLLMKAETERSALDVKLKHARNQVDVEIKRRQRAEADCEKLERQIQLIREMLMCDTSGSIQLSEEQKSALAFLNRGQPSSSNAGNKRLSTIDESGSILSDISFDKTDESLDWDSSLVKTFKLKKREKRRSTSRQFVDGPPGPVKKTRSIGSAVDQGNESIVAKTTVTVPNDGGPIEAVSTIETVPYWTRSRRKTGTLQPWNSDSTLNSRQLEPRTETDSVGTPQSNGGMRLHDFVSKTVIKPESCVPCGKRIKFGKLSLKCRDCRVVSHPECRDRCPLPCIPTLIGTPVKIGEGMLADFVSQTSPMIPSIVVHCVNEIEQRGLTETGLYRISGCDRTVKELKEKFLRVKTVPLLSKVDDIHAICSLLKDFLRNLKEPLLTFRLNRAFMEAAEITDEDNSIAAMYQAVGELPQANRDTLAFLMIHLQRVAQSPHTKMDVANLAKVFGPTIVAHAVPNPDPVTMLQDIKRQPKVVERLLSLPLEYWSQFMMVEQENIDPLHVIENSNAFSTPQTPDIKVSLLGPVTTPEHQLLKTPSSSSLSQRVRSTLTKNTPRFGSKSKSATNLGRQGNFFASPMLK

[12] = target: T4, Bcl-2-related protein A1 (Mus musculus, UniProt Q07440); assay type: functional;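 also: confirmatory dose–response counterscreen on Bfl-1, used to check hits from a UBC13 polyubiquitin inhibitor campaign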
T4 sequence (Q07440 whole entry): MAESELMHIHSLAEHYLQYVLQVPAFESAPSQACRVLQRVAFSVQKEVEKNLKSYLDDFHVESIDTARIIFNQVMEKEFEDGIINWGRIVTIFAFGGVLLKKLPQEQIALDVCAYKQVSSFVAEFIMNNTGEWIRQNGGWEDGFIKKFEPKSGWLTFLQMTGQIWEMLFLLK

[13] = target: T5, Ubiquitin-conjugating enzyme E2 N (Homo sapiens, UniProt P61088); assay type: functional
T5 sequence (P61088 whole entry): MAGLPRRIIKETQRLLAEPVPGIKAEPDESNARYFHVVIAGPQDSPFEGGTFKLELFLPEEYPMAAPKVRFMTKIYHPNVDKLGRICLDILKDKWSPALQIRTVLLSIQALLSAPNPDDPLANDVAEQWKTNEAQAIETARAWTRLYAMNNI

[14] = target: T5, Ubiquitin-conjugating enzyme E2 N; assay type: functional; remark: listed apart in the source
[15] = target: E3 ubiquitin-protein ligase XIAP (Homo sapiens, UniProt P98170); test: Counter Screen using XIAP-Bir3 for Chemical Antagonists of Bir1/2 domains of IAP-family anti-apoptotic proteins. [Related pubchem assays (depositor defined):AID1018, AID1449, AID1514, AID1638, AID1749, AID1750, AID488957, AID488963]
E3 ubiquitin-protein ligase XIAP, sequence (P98170 whole entry): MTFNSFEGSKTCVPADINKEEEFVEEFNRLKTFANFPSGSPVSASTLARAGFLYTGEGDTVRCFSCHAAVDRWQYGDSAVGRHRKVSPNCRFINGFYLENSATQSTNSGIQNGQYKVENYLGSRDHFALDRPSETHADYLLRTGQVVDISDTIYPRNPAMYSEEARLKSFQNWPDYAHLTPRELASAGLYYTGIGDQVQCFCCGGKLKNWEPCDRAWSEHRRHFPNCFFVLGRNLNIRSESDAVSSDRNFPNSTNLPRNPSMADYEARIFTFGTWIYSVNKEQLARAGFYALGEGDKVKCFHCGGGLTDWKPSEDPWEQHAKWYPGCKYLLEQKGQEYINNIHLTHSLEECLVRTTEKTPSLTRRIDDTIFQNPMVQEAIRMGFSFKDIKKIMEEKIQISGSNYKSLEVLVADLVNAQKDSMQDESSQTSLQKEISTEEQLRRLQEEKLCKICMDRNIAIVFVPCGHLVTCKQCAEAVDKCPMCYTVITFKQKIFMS

Large T antigen, sequence (P03070 whole entry): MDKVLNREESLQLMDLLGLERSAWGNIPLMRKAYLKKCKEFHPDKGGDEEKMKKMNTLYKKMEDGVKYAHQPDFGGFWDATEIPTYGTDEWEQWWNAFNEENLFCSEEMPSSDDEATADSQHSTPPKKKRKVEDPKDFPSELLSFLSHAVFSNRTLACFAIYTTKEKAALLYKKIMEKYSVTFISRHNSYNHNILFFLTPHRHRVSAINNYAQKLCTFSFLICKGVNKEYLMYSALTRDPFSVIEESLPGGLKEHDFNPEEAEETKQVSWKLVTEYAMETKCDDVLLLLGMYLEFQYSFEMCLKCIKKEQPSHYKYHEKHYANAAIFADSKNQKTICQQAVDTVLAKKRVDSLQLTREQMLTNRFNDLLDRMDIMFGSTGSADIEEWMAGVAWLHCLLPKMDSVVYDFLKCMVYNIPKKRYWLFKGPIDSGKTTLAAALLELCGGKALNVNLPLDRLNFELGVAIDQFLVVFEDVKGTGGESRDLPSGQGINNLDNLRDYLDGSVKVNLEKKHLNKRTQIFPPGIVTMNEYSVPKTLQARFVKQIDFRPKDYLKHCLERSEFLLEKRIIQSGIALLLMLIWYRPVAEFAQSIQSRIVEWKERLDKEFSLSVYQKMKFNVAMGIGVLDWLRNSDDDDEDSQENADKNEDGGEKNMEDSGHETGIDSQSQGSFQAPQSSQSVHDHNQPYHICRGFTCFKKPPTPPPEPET

With `C/N=c1/nc(-c2ccccc2)n(-c2ccccc2)s1` the IC50 [1] was 29.4 µM (active), the IC50 [2] was > 100 µM (inactive) and the IC50 [3] was 10.1 µM (active). For the same compound, the IC50 [4] was 15.9 µM (active).
For `Sc1nnc(-c2ccccn2)n1/N=C/c1cccc(Cl)c1`, the IC50 [2] was > 100 µM (inactive) and the IC50 [4] was 2.81 µM (active).
With `O=C(NCc1ccco1)c1nn2c(C(F)(F)F)cc(-c3cccs3)nc2c1Br` the EC50 [5] was > 112 µM (not active), the IC50 [6] was 36.9 µM (not active) and the EC50 [7] was > 112 µM (not active). The EC50 [8] was > 32 µM (inactive).
With `CCOC(=O)CSc1nnc(S)s1` the IC50 [2] was > 100 µM (inactive) and the IC50 [4] was 15 µM (active).
For `O=c1c2ccccc2sn1-c1cccc(F)c1`, the IC50 [9] was 1.82 µM (active).
For `O=c1c2ccccc2sn1-c1ccc(Cl)cc1Cl`, the IC50 [9] was 5.03 µM (active), the IC50 [3] was 17 µM (active) and the CC50 [10] was 74.7 µM (active). For the same compound, the IC50 [11] was 31.8 µM (active).
With `CN(C)CCCN(C(=O)c1ccc(S(=O)(=O)N2CCCCC2)cc1)c1nc2cc3c(cc2s1)OCO3` the IC50 [12] was > 20 µM (inactive), the IC50 [13] was 12.7 µM (active) and the IC50 [14] was > 20 µM (inactive).
For `CCOc1ccc(NC(=O)Cn2c(=O)n(CCCC(=O)NC3CCN(Cc4ccccc4)CC3)c(=O)c3ccccc32)cc1`, the IC50 [12] was > 20 µM (inactive), the IC50 [13] was 5.27 µM (active) and the IC50 [14] was 5.19 µM (active).
In the case of `O=c1[nH]c(-c2ccc(F)cc2)nc2c1sc(=S)n2-c1ccccc1`, the IC50 [15] is reported as > 20 µM (inactive).
For `COc1ccc(C(=O)Nc2cc(C(F)(F)F)ccc2C(=O)O)cc1`, the IC50 [9] was 17 µM (active).
